Experiment [1] deals with green peach aphid (Myzus persicae). The experiment in a line: Insecticidal test for green peach aphid (10 ppm and 3 ppm), Test Example 2. Type of experiment: in vivo. The note with it: same manner as Test Example 1; for mortality at 3 ppm: Chemical concentration of spray 3 ppm; for mortality at 10 ppm: Chemical concentration of spray 10 ppm. The procedure: (§1) Water (30 ml) was put into a beaker, and a leaf of Komatsuna (Brassica var. rapa) was placed within the beaker such that the stem was immersed in water. On the leaf of Komatsuna, five green peach aphids were released and allowed to fertilize. Two days after the releasing, imagoes were removed and the number of larvae was counted.
(§2) A surfactant Newcol NE-710F (trademark, produced by Nippon Nyukazai Co., Ltd., 2%) was dissolved in aqueous acetone (95% aqueous solution, 98%) to prepare solution 1. Next, a dispersant Gousenol GLO5-S (trademark, produced by Nippon Nyukazai Co., Ltd., 0.2% aqueous solution, 0.2%) was dissolved in water (99.8%) to prepare solution 2.
(§3) To each of the compounds (8 mg) of the present invention, the above solution 1 (0.4 ml), the above solution 2 (0.4 ml) and water (8 ml) were added. Further, the compounds of the present invention were each diluted with water so that the concentration of each compound was 100 ppm {as a spreading agent, Gramin S (trademark, produced by Sankyo Co., Ltd.) was added so as to have a concentration of 0.01%}.
(§4) The above chemical liquid (8 ml) was sprayed on the leaf of Komatsuna by use of a rotary spraying tower. The leaf of Komatsuna was put back in the beaker. Then, the beaker was placed in a thermostatic chamber of 25° C. for 16 hours in the light and for 8 hours in the dark. 5 Days after the spraying, the number of dead insects was counted to calculate the mortality (%).
Insecticidal Test for Green Peach Aphid (Myzus persicae) (10 ppm and 3 ppm)
The test was carried out in the same manner as in Test Example 1 except for setting the dilution concentration to 10 ppm and 3 ppm. Incidentally, Comparative Compound a and Comparative Compound b (Compound No. 6) listed in Table 1 of Japanese Provisional Patent Publication No. Hei 10-195072 were used as a comparison. [drawing 25]

For experiment [2] the test system is unchanged. The experiment in a line: Insecticidal test for green peach aphid (100 ppm), Test Example 1. The class given is in vivo. The note with it: 120 h, 100 ppm spray on Komatsuna leaf, larvae, counted 5 days after spraying, 25° C., read-out: mortality (%). The procedure:
Insecticidal test for green peach aphid (Myzus persicae) (100 ppm)
as §1, §2, §3, §4

Molecules are shown by their SMILES. A value given as a limit tells only on which side of the number the result lay.

In the case of `O=C(Nc1nncs1)c1cnccc1C(F)(F)F` [Comparative Compound b, reference compound], in experiment [1], the mortality at 3 ppm was 0% and the mortality at 10 ppm is 0%.

Take `Cc1cc(NC(=O)c2cnccc2C(F)(F)F)on1` [Example 1, N-(3-Methyl-5-isoxazolyl)-4-(trifluoromethyl)nicotinamide]: in experiment [1], the mortality at 3 ppm turned out to be 100% and the mortality at 10 ppm was determined as 100%. The mortality at 100 ppm in experiment [2] was no less than 95%.

For the compound `O=C(Nc1ccno1)c1cnccc1C(F)(F)F` [Example 4, N-(5-Isoxazolyl)-4-(trifluoromethyl)nicotinamide], in experiment [1], the mortality at 3 ppm was found to be 100% and the mortality at 10 ppm worked out at 100%. In addition, the mortality at 100 ppm in experiment [2] was no less than 95%.

The values above are taken from patent US7015236B2, “N-heteroarylnicotinamide derivatives” (Sankyo Agro Company, Limited, priority 2001, dated 2006).
